Test results from patent US11840527B2, “Non-fused thiophene derivatives and their uses” (ENYO PHARMA, priority 2018, dated 2023).

Legend:
[1] = test system: NFκB; assay: NFκB reporter assay, TNFα stimulation of A549 reporter cells; format: cell-based; conditions: Homo sapiens; A549 NFκB-NanoLuciferase reporter cells, 4 ng/ml TNFα, 6 hours
Excerpt: Compounds of the present invention have been tested for their capacity to inhibit NFκB.
The NFκB reporter construct was made by cloning 5 NFκB responsive elements upstream of a NanoLuciferase reporter gene flanked by AAVS1 genomic sequences.
NFκB Responsive element fused with NanoLuciferase and SV40 late Poly(A) signal was amplified from pNL3.2-NFκB-Nluc (Promega) using NFκB-NLUC-F and NFκB-NLUC-R primers and inserted by Infusion (TaKaRa) in AAVS1 SA-2A-puro-pA donor plasmid (Hockemeyer et al, Nat Biotechnol. 2009, 27, 851-7) digested by Sall. pCRISPR AAVS1-T2 expressing a guide RNA (gRNA) to target human AAVS1 (T2 target sequence) was constructed by inserting AAVS1-T2A hybridized primers in pLentiCRISPR v2-blast (Sanjana et al, Nat Methods. 2014, 11, 783-4) digested by Bsmb1.
A549 cells were transfected by the plasmids and puromycine selected for 5 days (1 μg mL-1). Then clones were obtained by limiting dilution and selected to maximize TNFα dependent NFkB-NanoLuciferase induction.
The reporter cells were seeded on a 96-well plate for overnight with DMEM including 10% FBS. Test compounds were added at varying concentrations. The cells then were treated with 4 ng/ml TNFα (Peprotech, ref E251) in DMEM+10% FBS. NanoGlo luciferase assay (Promega) was carried out 6 hours later. Luminescence was measured using a Spark 20M spectrofluorimeter (Tecan). Values were normalized to the luminescence measured in untreated cells.

[2] = biological target: T1, CISD3 Gene Product (Miner2) (Homo sapiens, UniProt P0C7P0); assay: Stability of Fe-S cluster binding of purified NEET protein (absorbance 458 nm); format: biochemical; conditions: for Residual cluster bound at end of experiment (Percentage Absorbance 458 nm at time zero): CISD3 gene product, at 180 minutes, vehicle control (DMSO) 11%; for Residual cluster bound at end of experiment (Percentage Absorbance 458 nm at time zero) / Time (in minutes) to achieve 50% loss of bound cluster (Absorbance 458 nm): 60 μM compound; for Stabiliser of Fe—S cluster binding (time to 50% loss increased by more than 25% vs control) / Time (in minutes) to achieve 50% loss of bound cluster (Absorbance 458 nm): Miner2; for Stabiliser of Fe—S cluster binding (time to 50% loss increased by more than 25% vs control): at the concentrations tested; for Time (in minutes) to achieve 50% loss of bound cluster (Absorbance 458 nm): pH 6, 37° C., 20 μM protein, run time 180 minutes, vehicle control 60
T1 sequence (P0C7P0 15-127): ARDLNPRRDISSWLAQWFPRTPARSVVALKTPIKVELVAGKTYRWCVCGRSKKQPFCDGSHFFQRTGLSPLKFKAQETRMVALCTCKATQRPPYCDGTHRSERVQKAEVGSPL
Method: (§1) The modulator effect on the NEET proteins encoded by human CISD1, CISD2, and CISD3 genes by the compounds of the invention has been tested and is reported below. Particularly, the biochemical function of the NEET proteins is measured by the stability of Fe—S cluster binding of the purified NEET proteins.
(§2) The Fe—S cluster binding capacity of NEET proteins is known to be coordinated by four amino-acids in a stretch of 16 (three Cysteine and one Histidine). As the lability of the Fe—S cluster of NEET proteins is sensitive to the environment, cluster stability measurements are one of the measures of interactions of NEET proteins with small molecules and compounds. NEET protein/2Fe-2S cluster stability can be assessed by monitoring the decay in absorbance of its characteristic 458-nm peak (characteristic of the oxidized 2Fe-2S cluster) over time. Each NEET protein (mitoNEET, NAF-1 and Miner 2) was tested for its Fe—S binding in the absence or presence of a compound according to the invention (see table 3 below). The rate of cluster release (time in minutes to achieve 50% loss of bound Fe—S cluster) was compared for each NEET protein in the presence of one of the compounds of the invention (in a 1:3 protein:compound molar ratio) relative to each protein alone.
(§3) At pH 6, all the three NEET proteins (mitoNEET, NAF-1 and Miner 2) have a characteristic rate of loss of the bound Fe—S cluster that can be measured by the decrease of absorbance at wavelength 458 nm over time, using a spectrophotometer. Thus, Bis-Tris buffer (100 mM Bis-Tris pH6, 100 mM Nacl) was used at pH 6 to dilute either DMSO (Blank sample: Bis-Tris Buffer pH 6, 66 μM DMSO), DMSO and one of the three NEET proteins (Control sample: Bis-Tris Buffer pH 6, 66 μM DMSO, 20 μM purified NEET protein) or DMSO, one of the three NEET proteins and a compound of the invention (Test sample: Bis-Tris Buffer pH 6, 66 μM DMSO, 20 μM purified NEET protein, 60 μM compound of the invention).
(§4) A reaction mix containing DMSO diluted in the Bis-Tris Buffer with or without a compound of the invention was prepared. The purified NEET protein was the last component added to the reaction mix which was then aliquoted into 4 replicates in 96 wells plates. The absorbance at wavelength 458 nm was taken at 5 minutes intervals at 37° C. with a spectrofluorimeter. The assay run time for CISD2 gene product (NAF-1) was 500 minutes and 180 minutes for both the CISD 1 gene product (mitoNEET) and the CISD3 gene product (Miner 2).
(§5) In addition to time monitoring, residual bound Fe—S cluster to NEET protein was measured at the final point of the spectrometry assay for each Test sample and compared to the Control sample data (in parenthesis table 3). This residual binding is measured by the differential percentage between the absorbance 458 nm at time zero and the absorbance 458 nm at the end of the experiment (i.e. respectively 500 or 180 minutes as described hereabove), showing the percentage of NEET protein still able to bind Fe—S cluster.
(§6) Analysis of the absorbance enables the time for which 50% loss of bound Fe—S cluster is reached (i.e. a 50% absorbance decrease at 458 nm) for each Test sample and each Control sample (in parenthesis table 3) to be determined. The data are then compared to determine whether the compound of the invention stabilizes or destabilizes the NEET protein/Fe—S cluster binding.
(§7) Stabilisers of Fe—S cluster binding by the NEET proteins slow the release of bound Fe—S (i.e. increase the time needed to reach 50% Fe—S cluster bound loss by more than 25% for the Test sample compared to the Control sample). As illustrated by table 3, at the concentrations tested, stabilisers of CISD1 Gene Product (mitoNEET) are the compounds #9, #18, #26, #2, #1, and #42. Stabilisers of CISD2 Gene Product (NAF-1) are the compounds #2, #1, and #40. Stabilisers of CISD3 Gene Product (Miner2) are the compounds #9, #18, #26, #2, #1, and #42.

[3] = biological target: T2, CISD2 Gene Product (NAF-1) (Homo sapiens, UniProt Q8N5K1); assay: as above; format: biochemical; conditions: for Residual cluster bound at end of experiment (Percentage Absorbance 458 nm at time zero): at 500 minutes, vehicle control 3%; for Residual cluster bound at end of experiment (Percentage Absorbance 458 nm at time zero) / Time (in minutes) to achieve 50% loss of bound cluster (Absorbance 458 nm): 60 μM compound; for Time (in minutes) to achieve 50% loss of bound cluster (Absorbance 458 nm): pH 6, 37° C., 20 μM protein, run time 500 minutes, vehicle control 310; for Stabiliser of Fe—S cluster binding (time to 50% loss increased by more than 25% vs control): at the concentrations tested
T2 sequence (Q8N5K1 57-135 limits assumed): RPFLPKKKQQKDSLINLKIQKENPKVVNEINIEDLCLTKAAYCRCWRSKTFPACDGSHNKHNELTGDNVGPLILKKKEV
Method: as §1, §2, §3, §4, §5, §6, §7

[4] = biological target: T3, CISD1 Gene Product (mitoNEET) (Homo sapiens, UniProt Q9NZ45); assay: as above; format: biochemical; conditions: for Residual cluster bound at end of experiment (Percentage Absorbance 458 nm at time zero): at 180 minutes, vehicle control 16%; for Residual cluster bound at end of experiment (Percentage Absorbance 458 nm at time zero) / Time (in minutes) to achieve 50% loss of bound cluster (Absorbance 458 nm): 60 μM compound; for Stabiliser of Fe—S cluster binding (time to 50% loss increased by more than 25% vs control): at the concentrations tested; for Time (in minutes) to achieve 50% loss of bound cluster (Absorbance 458 nm): pH 6, 37° C., 20 μM protein, run time 180 minutes, vehicle control 80
T3 sequence (Q9NZ45 33-108 limits assumed): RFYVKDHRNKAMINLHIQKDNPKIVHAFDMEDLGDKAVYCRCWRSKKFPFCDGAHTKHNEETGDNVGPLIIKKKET
Method: as §1, §2, §3, §4, §5, §6, §7

[5] = test system: H1N1 (influenza A/New Caledonia/20/99); assay: Antiviral effect on A549 cells infected with H1N1; format: cell-based, H1N1 A/New Caledonia/20/99 virus; conditions: Influenza A virus, MOI 0.1, 48 h post-infection, MUNANA neuraminidase readout
Method: The antiviral effect of the compounds of the invention have been tested on A549 cell lines infected with H1N1 (influenza A/New Caledonia/20/99).
Human A549 cells (80,000 cells/well in a 96 well plate) were treated with a range of concentration of test compounds and immediately infected by H1N1 A/New Caledonia/20/99 virus (clinical isolate) at MOI of 0.1 in DMEM/1% Penicillin/streptomycin supplemented with […] TPCK trypsin (Sigma) and incubated at 37° C. in 5% CO2. 48 h post-infection, supernatants (25 μl) were collected and transferred into a 96-well black flat-bottom plate, mixed with 25 μl PBS with Ca++/Mg++ (Thermo Fisher) and 50 μl of 2′-(4-Methylumbelliferyl)-ax-D-N-acetylneuraminic acid sodium salt hydrate stock-solution (20 μM, MUNANA, Sigma). Plates were incubated 1h at 37° C. and reaction is stopped by adding 100 μl of Stop Solution (glycine 0.1 M pH10.7/25% ethanol). The amount of fluorescent product released by MUNANA hydrolysis (4-MU) was measured in a Tecan spectrophotometer with excitation and emission wavelengths of 365 and 450 nm respectively.

Compound | EC50 [1] | Residual cluster bound at end of experiment (Percentage Absorbance 458 nm at time zero) [2] | Stabiliser of Fe—S cluster binding (time to 50% loss increased by more than 25% vs control) [2] | Time (in minutes) to achieve 50% loss of bound cluster (Absorbance 458 nm) [2] | Residual cluster bound at end of experiment (Percentage Absorbance 458 nm at time zero) [3] | Time (in minutes) to achieve 50% loss of bound cluster (Absorbance 458 nm) [3] | Residual cluster bound at end of experiment (Percentage Absorbance 458 nm at time zero) [4] | Stabiliser of Fe—S cluster binding (time to 50% loss increased by more than 25% vs control) [4] | Time (in minutes) to achieve 50% loss of bound cluster (Absorbance 458 nm) [4] | IC50 [5] | Stabiliser of Fe—S cluster binding (time to 50% loss increased by more than 25% vs control) [3]
O=C(Nc1sc(Cl)c(C2CCCC2)c1C(=O)O)c1ccccc1 [Compound #18, 2-Benzamido-5-chloro-4-cyclopentyl-thiophene-3-carboxylic acid] | 1100 nM | 69% (11%) | Stabilisers | during 180 minutes | 38% (3%) | 240 (310) minutes | 52% (16%) | stabilisers | during 180 minutes | 64.8 nM | –
CC1(c2csc(NC(=O)c3ccc(NCC4CCOCC4)cc3)c2C(=O)O)CC1 [Compound #111, 4-(1-Methylcyclopropyl)-2-[[4-(tetrahydropyran-4-ylmethylamino)benzoyl]amino]thiophene-3-carboxylic acid] | 2200 nM | – | – | – | – | – | – | – | – | 200 nM | –
O=C(Nc1scc(C2CCCCC2)c1C(=O)O)c1ccccc1 [Compound #26, 2-Benzamido-4-cyclohexyl-thiophene-3-carboxylic acid] | – | 52% (11%) | Stabilisers | during 180 minutes | 18% (3%) | 355 (310) minutes | 36% (16%) | stabilisers | 105 (80) minutes | 745 nM | –
O=C(Nc1scc(-c2ccc(Cl)cc2)c1C(=O)O)c1ccccc1 [Compound #1, 2-Benzamido-4-(4-chlorophenyl)thiophene-3-carboxylic acid] | – | 47% (11%) | Stabilisers | 85 (60) minutes | 13% (3%) | 425 (310) minutes | 29% (16%) | stabilisers | 100 (80) minutes | 298 nM | Stabilisers
Cc1ccccc1C(=O)Nc1scc(-c2ccccc2)c1C(=O)O [Compound #42, 2-[(2-Methylbenzoyl)amino]-4-phenyl-thiophene-3-carboxylic acid] | – | 37% (11%) | Stabilisers | 75 (60) minutes | 2% (3%) | 330 (310) minutes | 24% (16%) | stabilisers | 100 (80) minutes | 5870 nM | –
Cc1c(-c2ccccc2)sc(NC(=O)c2ccccc2)c1C(=O)O [Compound #40, 2-Benzamido-4-methyl-5-phenyl-thiophene-3-carboxylic acid] | – | 24% (11%) | – | 70 (60) minutes | 9% (3%) | 390 (310) minutes | 6% (16%) | – | 95 (80) minutes | 2470 nM | Stabilisers
